Experimental data taken from US20230000842A1, “METHODS OF TREATING CARTILAGE DISORDERS THROUGH INHIBITION OF CLK AND DYRK” (SAMUMED, LLC, priority 2019, published 2023).

How the values were obtained:
[1] = system: cartilage of ACLT+pMMx rats; test: Surgery-induced OA model (ACLT+pMMx), cartilage analysis; format: in vivo, rat; conditions: cartilage at day 35
Protocol: (§1) Male Sprague Dawley (SD) rats (250 g±30 g) (Charles River, Wilmington, Mass.) were used for all animal studies. All animals were treatment naïve at the start of the studies. Procedures were performed during the hours of 8 am-5 pm on weekdays in a sterile hood in the vivarium. Rats were housed in individual ventilated cages (≤3 per cage) under the following conditions:
For Nanostring analysis and qPCR: At 10 weeks postnatal age, 32 rats were subjected to severing of the anterior cruciate, medial collateral and medial meniscotibial ligaments (ACLT+pMMx). 8 rats (male, 10 weeks old) were untreated controls (Sham). Each rat was anesthetized with an isoflurane/O2 mixture until the flexor withdrawal reflex was abolished. The surgeon wore a face mask, hair net, lab coat and shoe covers, and gloves that were disinfected with betadine or chlorhexidine. Surgery tools were sterilized with an autoclave or bead sterilizer and disinfected between animals using a bead sterilizer. After being shaved and disinfected with betadine or chlorhexidine solution, the right knee joint was exposed through a medial para-patellar approach. The medical collateral ligament (MCL) was transected with surgical scalpels. The patella was dislocated laterally, and the knee was placed in full flexion followed by anterior cruciate ligament (ACL) transection with surgical scalpels. The medial meniscus (MM) was also partially transected. After surgery, the joint surface was washed with sterile saline solution, and the capsule was sutured using Vicryl 4-0 (Ethicon, Edinburgh, UK) absorbable suture. The skin was closed with 9 mm auto clips (Mikron precision INC, Gardena Calif.). Buprenorphine (0.5 mg/kg) was administered immediately after the surgery and daily for one-week post-surgery. All the surgery, rats were allowed to move freely in plastic cages until their necropsies. […] At the indicated timepoints, animals were sacrificed using Carbon dioxide (CO2). Cartilage was isolated, flash frozen in liquid Nitrogen and stored at −80° C. until processing for RNA extraction.
At the indicated timepoints, animals were sacrificed using Carbon dioxide (CO2). Cartilage was isolated, flash frozen in liquid Nitrogen and stored at −80° C. until processing for protein extraction.

[2] = system: primary human mesenchymal stem cells (hMSCs); test: Chondrogenesis screening using primary human mesenchymal stem cells; format: cell-based; conditions: Homo sapiens, Mesenchymal stem cells
Outline: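 Primary hMSCs at passage 3–6 were treated across compound concentrations, with TGF-β3 as positive control. Chondrogenic nodule area per well was normalized to 3 DMSO wells on the same plate (fold over DMSO, 2–3 replicates). EC50, maximum activity and the dose reaching it were derived.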

[3] = system: THP1 cells; test: Western blot of phospho- and total proteins in THP1 cells stimulated with LPS; format: cell-based
Protocol: Cells were plated at 300,000 cells per well in a 6-well plate and following an overnight incubation, treated with DMSO (vehicle control) or indicated compounds and incubated at 37° C. and 5% CO2 for the indicated times. Following treatment, cells were trypsinized and pelleted by centrifugation and washed with PBS. Total protein from the cell pellet was extracted or for fractionation, protein was fractionated into cytoplasmic and nuclear fractions using a Nuclear and Cytoplasmic Extraction Reagents (NE-PER™) kit containing Halt™ protease and phosphatase inhibitors (Thermo Fisher). Protein concentrations were quantified using the Pierce Micro BCA protein assay kit (Thermo Fisher). […] Blots were blocked with non-fat dry milk. Primary antibodies were incubated overnight at 4° C. β-actin and Lamin B1 were used as loading controls (Supplementary Table S2 for primary antibodies). Mouse and rabbit horseradish peroxidase (HRP)-conjugated secondary antibodies were diluted in 5% blocking buffer in TBS-T. Protein-antibody complexes were detected by chemiluminescence using the SuperSignal West Femto Chemiluminescent Substrate (Thermo Fisher) and images were captured with a UVP ChemiDocIt2 camera system (Fisher Scientific, Hampton, N.H.).

[4] = system: cartilage of MIA injected rats; test: Monosodium iodoacetate (MIA) injection induced OA model, cartilage Western blot; format: in vivo, rat; conditions: 4 days after single IA injection
Protocol: Western blots for phospho-SRSF, SRSF1, AXIN2, phospho-NF-κB, total NFκB, phospho-STAT3, total STAT3, phospho-FOXO1 and total FOXO1 in the cartilage, with β-actin as a loading control.
as §1
For cytokine, MMP, histology (H&E and Safranin O-Fast Green staining), OARSI scores and weight bearing measurements: At 10 weeks postnatal age, 20 rats were subjected to MIA injection (3 mg in 50 μL). Each rat was anesthetized with an isoflurane/O2 mixture until the flexor withdrawal reflex was abolished. The surgeon wore a face mask, hair net, lab coat and shoe covers, and gloves that were disinfected with betadine or chlorhexidine between animals. All tools were sterilized with an autoclave. MIA was dissolved in 0.9% (w/v) saline (3 mg in 50 μL). The solution was filtrated with 0.22 μm membrane before administration. After being shaved and disinfected with betadine or chlorhexidine solution, the right knees were injected intra-articularly with 50 μL of MIA using 0.5-in 26-gauge needle, while the contralateral knees received an IA injection of 0.9% saline. After injection, the injected surface was washed with sterile saline solution. All the rats were allowed to move freely in plastic cages until their necropsies at different time points post-MIA injection.
On day 11, animals were sacrificed using Carbon dioxide (CO2). Cartilage was isolated, flash frozen in liquid Nitrogen and stored at −80° C. until processing for protein extraction.

[5] = single IA injection 0.1 μg, 0.3 μg, 1 μg one-week post ACLT+pMMx, compared with vehicle

Question: What does the source list for CC(C)CC(=O)Nc1cncc(-c2ccc3[nH]nc(-c4nc5c(-c6cccc(F)c6)cncc5[nH]4)c3c2)c1 [compound 123]?
Answer: number of Wnt pathway genes with decreased expression ([1]; ACLT+pMMx rats, Nanostring): 19 genes; number of Wnt pathway genes with increased expression ([1]; ACLT+pMMx rats, Nanostring): at least 8 genes; CLK2, DYRK1A, SRSF1, SRSF5, and SRSF6 expression [1, 5]: decreased; phospho-SRSF, SRSF1, AXIN2, TCF7, phospho-SIRT1, phospho-FOXO1, and phospho-STAT3 (Western blot) [1, 5]: decreased; Emax ([2]; hMSC chondrogenesis, maximum activity relative to TGF-β3 (10 ng/mL) positive control, read-out: Max. Activity as % TGF-β3 activity): 397%; EC50 ([2]; read-out: Conc (nM) of 50% TGF-β3 activity): 30 nM; AKT, JNK1, cJUN, p38/MAPK and TLR4 ([3]; 4 hrs, compared to DMSO): not inhibited; phospho-STAT3 (S727, Y705), phospho- and total NF-κB (p105/p50), and phospho-FOXO1/3a ([3]; 4 hrs, compared to DMSO): dose-dependently decreased; AKT, cJUN, p38/MAPK, and TLR4 ([3]; 20 hrs): remained unchanged; NF-κB, STAT3, JNK1 and FOXO1/3a phosphorylation ([3]; 20 hrs): robustly inhibited; phospho- or total NF-κB (p105/p50) ([3]; THP1 cells + LPS, 10 mins, 30 mins, 1 hr or 2 hrs): no effects; phospho-STAT3 (Y705) ([3]; THP1 cells + LPS, 1 hr, 2 hrs, 4 hrs and 20 hrs): inhibited; phospho- and total NF-κB ([3]; THP1 cells + LPS, 4 hrs and 20 hrs): decreased; total STAT3 ([3]; THP1 cells + LPS, any timepoint): no effects; protein levels of total FOXO1 [4]: increased; protein levels of total NF-κB [4]: decreased; total protein levels of SRSF1 and STAT3 [4]: no changes; phosphorylation of SRSF, NF-κB, STAT3, and FOXO1 ([4]; compared to vehicle): decreased
